Data from ChEMBL document CHEMBL1127107, “The affinity of the excised binding domain of FK-506 for the immunophilin FKBP12” (Bioorg Med Chem Lett, 1993).

Target: Peptidyl-prolyl cis-trans isomerase FKBP1A (Homo sapiens, UniProt P62942)
Assay: The compound was evaluated for its affinity to the binding domain of immunophilin FK506 binding protein 12

Chain of Peptidyl-prolyl cis-trans isomerase FKBP1A (P62942 whole entry, the tested form may be a part): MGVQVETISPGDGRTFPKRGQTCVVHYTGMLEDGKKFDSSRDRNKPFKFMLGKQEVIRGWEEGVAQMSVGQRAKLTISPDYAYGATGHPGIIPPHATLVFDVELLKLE

Kd: 10 nM
SMILES: COC[C@H]1O[C@@](O)(C(=O)C(=O)N2CCCC[C@H]2C(=O)OC/C(C)=C/[C@@H]2CC[C@@H](O)[C@H](OC)C2)[C@H](C)C[C@@H]1OC
